Columns and labels:
[1] = biological target: T1, acyl-CoA: cholesterol acyltransferase (ACAT) (Oryctolagus cuniculus, UniProt G1SFD9); assay: in vitro ACAT inhibition test (IAI), radiolabeled cholesterol oleate formed from radiolabeled oleic acid in rabbit intestinal microsomes; type: biochemical; settings: inhibition of acylation of cholesterol by oleic acid
T1 construct: tissue preparation containing rabbit intestinal microsomes; from tissue; host or cells: rabbit intestinal microsomes
T1 sequence (G1SFD9 1-524): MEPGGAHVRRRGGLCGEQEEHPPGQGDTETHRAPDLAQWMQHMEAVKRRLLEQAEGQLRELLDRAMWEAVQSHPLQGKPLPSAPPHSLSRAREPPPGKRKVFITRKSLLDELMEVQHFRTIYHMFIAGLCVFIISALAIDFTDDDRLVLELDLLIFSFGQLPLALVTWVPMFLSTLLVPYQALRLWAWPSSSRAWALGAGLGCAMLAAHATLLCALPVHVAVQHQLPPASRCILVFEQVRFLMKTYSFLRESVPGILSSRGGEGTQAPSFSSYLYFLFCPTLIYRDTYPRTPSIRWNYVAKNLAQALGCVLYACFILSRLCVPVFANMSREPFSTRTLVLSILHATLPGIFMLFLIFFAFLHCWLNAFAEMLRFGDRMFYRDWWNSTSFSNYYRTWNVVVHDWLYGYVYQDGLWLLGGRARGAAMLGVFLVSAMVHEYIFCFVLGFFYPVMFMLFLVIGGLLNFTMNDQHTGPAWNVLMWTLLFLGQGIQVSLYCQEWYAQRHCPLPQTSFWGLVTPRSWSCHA
Protocol: The ability of representative compounds of the present invention to inhibit ACAT was measured using an in vitro test more fully described in Field FJ, Salone RG. Biochemica et Biophysica 1982;712:557-70. The test assesses the ability of a test compound to inhibit the acylation of cholesterol by oleic acid by measuring the amount of radiolabeled cholesterol oleate formed from radiolabeled oleic acid in a tissue preparation containing rabbit intestinal microsomes.
The data appear in Table 1 where they are expressed as IC50 values; i.e., the concentration of test compound required to inhibit the activity of the enzyme by 50%.

[2] = in vivo screen designated APCC, rats on high fat, high cholesterol diet with 0.5% cholic acid, blood cholesterol; set-up: species or system male Sprague-Dawley rats; settings: Rattus norvegicus, 16 h, dosed at 4 PM in CMC/Tween, sacrificed at 8 AM, high cholesterol diet overnight, read-out: APCC (% ΔTC)
From the text: In one in vivo screen designated APCC, male Sprague-Dawley rats (200 to 225 g) were randomly divided into treatment groups and dosed at 4 PM with either vehicle (CMC/Tween) or suspensions of compounds in vehicle. The normal chow diet was then replaced with a high fat, high cholesterol diet with 0.5% cholic acid. The rats consumed this diet ad libitum during the night and were sacrificed at 8 AM to obtain blood samples for cholesterol analysis using standard procedures. Statistical differences between mean cholesterol values for the same vehicle were determined using analysis of variance followed by Fisher's least significant test. The results of this trial for representative compounds of the present invention also appear in Table 1.

SMILES | IC50 [1] [nM] | change in vivo at 30 mg/kg [2] [%]
CCCCCCCCCCCCCCCCn1nnc(CS(=O)(=O)Nc2c(C(C)C)cccc2C(C)C)n1 [Example 2, N-[2,6-bis(1-methylethyl)phenyl]-2-hexadecyl-2H-tetrazole-5-methanesulfonamide] | 600 | -20
CCCCCCCCn1nnc(CS(=O)(=O)Nc2c(C(C)C)cccc2C(C)C)n1 [Example 4, N-[2,6-bis(1-methylethyl)phenyl]-2-octyl-2H-tetrazole-5-methanesulfonamide] | 750 | -14
CCCCCCCCCCCCCCCCCCn1nnc(CS(=O)(=O)Nc2c(C(C)C)cccc2C(C)C)n1 [Example 5, N-[2,6-bis(1-methylethyl)phenyl]-2-octadecyl-2H-tetrazole-5-methanesulfonamide] | 7600 | -31
CCCCCCCCCCCCn1nnnc1CS(=O)(=O)Nc1c(C(C)C)cccc1C(C)C [Example 6, N-[2,6-bis(1-methylethyl)phenyl]-1-dodecyl-1H-tetrazole-5-methanesulfonamide] | 1200 | -41
CCCCCCCCCCCCn1nnnc1CS(=O)(=O)Nc1c(OC)cc(OC)cc1OC [Example 8, N-(2,4,6-trimethoxyphenyl)-1-dodecyl-1H-tetrazole-5-methanesulfonamide] | 3700 | -30

These reach a lower IC50 [1]. Values come first.

IC50 [1] [nM] | SMILES | change in vivo at 30 mg/kg [2] [%]
222 | CCCCCCCCCCCCn1nnc(CS(=O)(=O)Nc2c(C(C)C)cccc2C(C)C)n1 [Example 1, N-[2,6-Bis(1-methylethyl)phenyl]-2-dodecyl-2H-tetrazole-5-methanesulfonamide] | -61
180 | CCCCCCCCCCCCn1nnc(CS(=O)(=O)Nc2c(OC)cc(OC)cc2OC)n1 [Example 7, N-(2,4,6-trimethoxyphenyl)-2-dodecyl-2H-tetrazole-5-methanesulfonamide] | -60
150 | CCCCCCCCCCCCCCn1nnc(CS(=O)(=O)Nc2c(C(C)C)cccc2C(C)C)n1 [Example 3, N-[2,6-bis(1-methylethyl)phenyl]-2-tetradecyl-2H-tetrazole-5-methanesulfonamide] | -42
40 | CCCCCCCCCCCCn1nnc(C(C)(C)S(=O)(=O)Nc2c(C(C)C)cccc2C(C)C)n1 [Example 9, N-[2,6-Bis(1-methylethyl)phenyl]-2-dodecyl-α,α-dimethyl-2H-tetrazole-5-methanesulfonamide] | -53

Reference: patent publication US5239082A, “Sulfonamide tetrazole ACAT inhibitors” (Warner-Lambert Company, priority 1992, dated 1993)
